How the values were obtained:
Assay type in all cases: cell-based, mouse
neural precursor cells [1] = test: Differentiation of neural precursor cells into neurons (Tuj1 immunofluorescence) and axonal length; conditions: ADT-OH 80 μmol/L; 5 days in differentiation medium
Text: (§1) • (1) Adult ICR mice (male:female 2:1) were allowed to mate randomly. At 8:00 every night, the male and female mice were co-caged. […] On day 14.5 of pregnancy of the mice, neural precursor cells were extracted.
C57BL/6J mice at day 14.5 of pregnancy were anesthetized with 4% chloral hydrate by intraperitoneal injection. The abdominal cavity of the pregnant mice was opened using sterile surgical scissors and surgical forceps, the uterus of the pregnant mice was opened and the fetal brain was taken out. The fetal brain tissue in the subventricular zone was isolated under a stereomicroscope, digested with 0.05% trypsin in a water bath at 37° C. for 10 min, and then terminated with a neural precursor cell culture medium (containing DMEM-F12 medium 39.2 ml, 1×B27 800 ul, 0.2 mg/ml bEGF 4 ul, and 0.2 mg/ml FGF 8 ul), and then gently blown into individual cells. The cells were centrifuged at 700 rcf for 5 min and the supernatant was discarded. The neural precursor cell culture medium was added, and the cells were inoculated and cultured in a 24-well cell culture plate. […]
(§2) The cultured cells were fixed with 4% PFA for 15 min, and washed three times with 0.01 M PBS, and then immunofluorescence staining was performed with Tuj1, GFAP, MBP, and caspase3 antibodies. The plate was blocked with a DAPI-containing blocking agent (Vector Labs, H-1400), observed and photographed under a Zeiss fluorescence microscope. Tuj1-positive neurons GFAP-positive astrocytes, MBP-positive oligodendrocytes and DAPI-positive cells were counted using ImageJ and adobe photoshop, respectively. The rate of positive cells to all DAPI-positive cells was calculated. • (2) The cells were fixed with 4% PFA after 5 days of differentiation in the differentiation medium, and immunofluorescently stained with the neuron-specific antibody Tuj1. After staining, images were collected under a fluorescence microscope, and the rates of neurons to all DAPI-positive cells in each group were statistically calculated.

neural precursor cells [2] = test: Differentiation of neural precursor cells into oligodendrocytes (MBP immunofluorescence); conditions: ADT-OH 80 μmol/L; 5 days in differentiation medium
Text: as §1
(§3) C57BL/6J mice at day 14.5 of pregnancy were anesthetized with 4% chloral hydrate by intraperitoneal injection. The abdominal cavity of the pregnant mice was opened using sterile surgical scissors and surgical forceps, the uterus of the pregnant mice was opened and the fetal brain was taken out. […]
as §2, with “After staining, images were collected under a fluorescence microscope, and the rates of neurons to all DAPI-positive cells in each group were statistically calculated.” left out
The rate of MBP positive cells to all DAPI-positive cells was statistically calculated.

neural precursor cells [3] = test: Differentiation of neural precursor cells into astrocytes (GFAP immunofluorescence); conditions: ADT-OH 80 μmol/L; 8 days in differentiation medium
Text: as §1, §3
as §2, with “After staining, images were collected under a fluorescence microscope, and the rates of neurons to all DAPI-positive cells in each group were statistically calculated.” left out
The rate of GFAP positive cells to DAPI-positive cells was statistically calculated.

neural precursor cells [4] = test: Apoptosis of neural precursor cells (caspase3 staining); conditions: ADT-OH 80 μmol/L
Description: The isolated primary neural precursor cells were cultured for 3-4 days, and the neurospheres were blown into individual cells. and inoculated in a 24-well cell culture plate lined with adhesive glass discs. The cells were grown in neural precursor cell culture medium supplemented with ADT-OH (80 μmol/L) or control solute DMSO for 3 days, respectively, and then stained with apoptosis-specific antibody caspase3. Images were collected under a fluorescence microscope, and • the rate of caspase3 positive cells to all DAPI-positive cells were statistically calculated.

Oc1ccc(-c2cc(=S)ss2)cc1 [ADT-OH, 5-(p-hydroxyphenyl)-1,2-dithione-3-thione]
axons of neurons (axonal length) compared with the DMSO control group (neural precursor cells [1]): longer axons
differentiation into neurons (Tuj1-positive cells to all DAPI-positive cells) compared with the DMSO control group (neural precursor cells [1]): more cells are differentiated into neurons
rate of differentiation into neurons, increase compared with the DMSO control group (neural precursor cells [1]): 57.69%
differentiation into oligodendrocytes (MBP positive cells to all DAPI-positive cells) compared with the DMSO control group (neural precursor cells [2]): more cells are differentiated into oligodendrocytes
rate of differentiation into oligodendrocytes, increase compared with the DMSO control group (neural precursor cells [2]): 87.5%
differentiation into astrocytes (GFAP positive cells to DAPI-positive cells) compared with the DMSO control group (neural precursor cells [3]): fewer cells in the ADT-OH group are differentiated into astrocytes
rate of differentiation into astrocytes, reduction compared with the DMSO control group (neural precursor cells [3]): 69.2%
apoptosis, reduction compared with the DMSO control group (neural precursor cells [4]; 3 days): 44.8%
apoptotic cells (caspase3 positive cells to all DAPI-positive cells) compared with the DMSO control group (neural precursor cells [4]; 3 days in neural precursor cell culture medium): fewer cells are apoptotic

Source: patent US12478608B2, “Use of slow-releasing hydrogen sulfide organic donor ADT-OH in the preparation of drugs for treating nervous system diseases” (SOOCHOW UNIVERSITY, priority 2021, dated 2025)
